Data from patent publication US20220023386A1, “METHOD FOR THE TREATMENT OR PREVENTION OF OSTEOARTHRITIS” (Chondropeptix B.V., priority 2016, published 2022).

Columns and labels:
Assay in all cases: Expression of OA chondrocyte phenotype marker genes by RT-qPCR after peptide exposure
Format in all cases: cell-based, human
[1] = system: OA articular chondrocytes; parameters: key: [+] denotes a significantly increased expression of chondrogenic marker BAPX1/NKX3.2 or a decreased expression of OA chondrocyte phenotypic markers ALP, MMP13, ADAMTS5, COX2, COL10A and RUNX2 in OA articular chondrocytes, in comparison to untreated OA articular chondrocytes.; [−] denotes the absence of a significant effort or a significantly decreased expression of chondrogenic marker BAPX1/NKX3.2 or an increased expression of OA chondrocyte phenotypic markers ALP, MMP13, ADAMTS5, COX2, COL10A and RUNX2 in OA articular chondrocytes, in comparison to untreated OA articular chondrocytes; conditions: Table 2 (FIGS. 2-8), peptide 10 nM, 24 hours, vs untreated OA articular chondrocytes
Protocol: The action of 20-mer peptides (10 nM) of SEQ ID NO: 2-15 (peptides with 1 amino acids intervals (19 amino acid overlap)) and SEQ ID NO:49 on the expression of the indicated genes was determined on a validated pool of passage 2 OA human articular chondrocytes (n=18) and compared to full-length recombinant BMP-7 (1 nM). Samples were harvested after 24 hours and analyzed for indicated genes by RT-qPCR (corrected for 28S rRNA expression and relative to control conditions (no peptide exposure)). In the graphs, numbers on the x-axis represent individual peptides according to their SEQ ID NO:, error bars represent mean±SEM, statistical differences were calculated (one-way ANOVA with bonferroni correction) to control condition. *=p<0.05 lower than control condition for COL10A1, ALP, RUNX2, COX-2, MMP13 and ADAMTS5 and higher than control condition for BAPX1/NKX3.2. Random peptide is a peptide according to SEQ ID NO: 49 with amino acid sequence […].

[2] = system: OA articular chondrocytes; parameters: key: [+] denotes a significantly increased expression of chondrogenic marker BAPX1/NKX3.2 or a decreased expression of OA chondrocyte phenotypic markers ALP, MMP13, ADAMTS5, COX2, COL10A and RUNX2 in OA articular chondrocytes, in comparison to untreated OA articular chondrocytes.; [−] denotes the absence of a significant effort or a significantly decreased expression of chondrogenic marker BAPX1/NKX3.2 or an increased expression of OA chondrocyte phenotypic markers ALP, MMP13, ADAMTS5, COX2, COL10A and RUNX2 in OA articular chondrocytes, in comparison to untreated OA articular chondrocytes; conditions: vs untreated OA articular chondrocytes
[3] = system: OA articular chondrocytes; parameters: key to ADAMTS5 expression: [+] denotes a significantly increased expression of chondrogenic marker BAPX1/NKX3.2 or a decreased expression of OA chondrocyte phenotypic markers ALP, MMP13, ADAMTS5, COX2, COL10A and RUNX2 in OA articular chondrocytes, in comparison to untreated OA articular chondrocytes.; [−] denotes the absence of a significant effort or a significantly decreased expression of chondrogenic marker BAPX1/NKX3.2 or an increased expression of OA chondrocyte phenotypic markers ALP, MMP13, ADAMTS5, COX2, COL10A and RUNX2 in OA articular chondrocytes, in comparison to untreated OA articular chondrocytes; conditions: for suppression of the OA chondrocyte phenotype: independent of the tested concentration (1000, 100, 10 and 1 nM were tested); for ADAMTS5 expression: Table 3, N- and C-terminally truncated peptides, vs untreated OA articular chondrocytes
[4] = Table 2 (FIGS. 2-8), peptide 10 nM, 24 hours
[5] = Table 3, N- and C-terminally truncated peptides

Row | Substance | ADAMTS5 expression [1] | ALP expression [1] | BAPX1/NKX3.2 expression [1] | COL10A expression [1] | COX-2 expression [1] | RUNX2 expression [1] | MMP13 expression [2, 4] | suppression of the OA chondrocyte phenotype [3] | further results
1 | 3 (IIAPEGYAAYYSEGESAFPL; homo sapiens) [compound 3] | − | − | − | − | + | − | − |  | 
2 | SEGESAFPLNSYMNATNHAI (homo sapiens) [SEQ ID NO: 14] |  |  |  |  |  |  |  | efficiently suppressed | 
3 | 9 (YAAYYSEGESAFPLNSYMNA; homo sapiens) [compound 9] | + | + | + | + | + | + | + |  | 
4 | 27 (YSEGESAFPLNSYM; homo sapiens) [compound 27] |  |  |  |  |  |  |  |  | ADAMTS5 expression [3]: +; ALP expression [2, 5]: +; BAPX1/NKX3.2 expression [2, 5]: +; COL10A expression [2, 5]: +; COX-2 expression [2, 5]: +; MMP13 expression [2, 5]: +; RUNX2 expression [2, 5]: +
5 | 34 (APEGYAAYYSEGESAFPLNSYMNATNHA; homo sapiens) [compound 34] |  |  |  |  |  |  |  |  | ADAMTS5 expression [3]: +; ALP expression [2, 5]: +; BAPX1/NKX3.2 expression [2, 5]: +; COL10A expression [2, 5]: +; COX-2 expression [2, 5]: +; MMP13 expression [2, 5]: +; RUNX2 expression [2, 5]: +
6 | 4 (IAPEGYAAYYSEGESAFPLN; homo sapiens) [compound 4] | − | − | − | − | + | − | − |  | 
7 | 2 (WIIAPEGYAAYYSEGESAFP; homo sapiens) [compound 2] | − | − | − | − | + | − | − |  | 
8 | 30 (YSEGESAFPLNSYMNAT; homo sapiens) [compound 30] |  |  |  |  |  |  |  |  | ADAMTS5 expression [3]: +; ALP expression [2, 5]: +; BAPX1/NKX3.2 expression [2, 5]: +; COL10A expression [2, 5]: +; COX-2 expression [2, 5]: +; MMP13 expression [2, 5]: +; RUNX2 expression [2, 5]: +
9 | 24 (YYSEGESAFPLNS; homo sapiens) [compound 24] |  |  |  |  |  |  |  |  | ADAMTS5 expression [3]: +; ALP expression [2, 5]: +; BAPX1/NKX3.2 expression [2, 5]: +; COL10A expression [2, 5]: +; COX-2 expression [2, 5]: +; MMP13 expression [2, 5]: +; RUNX2 expression [2, 5]: +
10 | 22 (AAYYSEGESAFPLNS; homo sapiens) [compound 22] |  |  |  |  |  |  |  |  | ADAMTS5 expression [3]: +; ALP expression [2, 5]: +; BAPX1/NKX3.2 expression [2, 5]: +; COL10A expression [2, 5]: +; COX-2 expression [2, 5]: +; MMP13 expression [2, 5]: +; RUNX2 expression [2, 5]: +
11 | 15 (EGESAFPLNSYMNATNHAIV; homo sapiens) [compound 15] | − | − | − | − | − | + | − |  | 
12 | EGESAFPLNSYMNATNHAIV (homo sapiens) [SEQ ID NO: 15] |  |  |  |  |  |  |  | efficiently suppressed | 
13 | YSEGESAFPLNSYMNATNHA (homo sapiens) [SEQ ID NO: 13] |  |  |  |  |  |  |  | efficiently suppressed | 
14 | 13 (YSEGESAFPLNSYMNATNHA; homo sapiens) [compound 13] | + | + | + | + | + | + | + |  | 
15 | IIAPEGYAAYYSEGESAFPL (homo sapiens) [SEQ ID NO: 3] |  |  |  |  |  |  |  | efficiently suppressed | 
16 | 5 (APEGYAAYYSEGESAFPLNS; homo sapiens) [compound 5] | + | + | + | + | + | + | − |  | 

Row | Substance | ADAMTS5 expression [1] | ALP expression [1] | BAPX1/NKX3.2 expression [1] | COL10A expression [1] | COX-2 expression [1] | RUNX2 expression [1] | MMP13 expression [2, 4] | suppression of the OA chondrocyte phenotype [3] | further results
17 | APEGYAAYYSEGESAFPLNS (homo sapiens) [SEQ ID NO: 5] |  |  |  |  |  |  |  | efficiently suppressed | 
18 | 12 (YYSEGESAFPLNSYMNATNH; homo sapiens) [compound 12] | + | + | + | + | + | + | + |  | 
19 | 7 (EGYAAYYSEGESAFPLNSYM; homo sapiens) [compound 7] | + | + | + | + | + | + |  |  | 
20 | AYYSEGESAFPLNSYMNATN (homo sapiens) [SEQ ID NO: 11] |  |  |  |  |  |  |  | efficiently suppressed | 
21 | 11 (AYYSEGESAFPLNSYMNATN; homo sapiens) [compound 11] | + | + | + | + | + | + | + |  | 
22 | YYSEGESAFPLNSYMNATNH (homo sapiens) [SEQ ID NO: 12] |  |  |  |  |  |  |  | efficiently suppressed | 
23 | 8 (GYAAYYSEGESAFPLNSYMN; homo sapiens) [compound 8] | + | + | + | + | + | + | + |  | 
24 | 10 (AAYYSEGESAFPLNSYMNAT; homo sapiens) [compound 10] | + | + | + | + | + | + | + |  | 
25 | 14 (SEGESAFPLNSYMNATNHAI; homo sapiens) [compound 14] | − | − | − | − | − | + | − |  | 
26 | 6 (PEGYAAYYSEGESAFPLNSY; homo sapiens) [compound 6] | + | + | + | + | + | + | − |  | 
27 | EGYAAYYSEGESAFPLNSYM (homo sapiens) [SEQ ID NO: 7] |  |  |  |  |  |  |  | efficiently suppressed | 
28 | YAAYYSEGESAFPLNSYMNA (homo sapiens) [SEQ ID NO: 9] |  |  |  |  |  |  |  | efficiently suppressed | 
29 | PEGYAAYYSEGESAFPLNSY (homo sapiens) [SEQ ID NO: 6] |  |  |  |  |  |  |  | efficiently suppressed | 
30 | WIIAPEGYAAYYSEGESAFP (homo sapiens) [SEQ ID NO: 2] |  |  |  |  |  |  |  | efficiently suppressed | 
31 | AAYYSEGESAFPLNSYMNAT (homo sapiens) [SEQ ID NO: 10] |  |  |  |  |  |  |  | efficiently suppressed | 
32 | IAPEGYAAYYSEGESAFPLN (homo sapiens) [SEQ ID NO: 4] |  |  |  |  |  |  |  | efficiently suppressed | 
